The term % Inhibition denotes the relative decrease from the control value, in per cent. Broadly, the inhibition is the relative decrease from the control value, in per cent. As usually defined, the IC50 is the midpoint of a concentration-inhibition curve. A low value points to inhibition by little substance.

The values below come from US20080171783A1, “COMPOSITIONS AND METHODS FOR TREATING HYPERPROLIFERATIVE DISEASE” (Migenix Inc., priority 2006, published 2008).

The target in the first assay is T1, Calf polymerase alpha (Bos taurus, UniProt A0AAA9TD94).
T1 construct: purchased Replizyme Ltd (Heslington, York, UK)
T1 sequence (A0AAA9TD94 1-1441): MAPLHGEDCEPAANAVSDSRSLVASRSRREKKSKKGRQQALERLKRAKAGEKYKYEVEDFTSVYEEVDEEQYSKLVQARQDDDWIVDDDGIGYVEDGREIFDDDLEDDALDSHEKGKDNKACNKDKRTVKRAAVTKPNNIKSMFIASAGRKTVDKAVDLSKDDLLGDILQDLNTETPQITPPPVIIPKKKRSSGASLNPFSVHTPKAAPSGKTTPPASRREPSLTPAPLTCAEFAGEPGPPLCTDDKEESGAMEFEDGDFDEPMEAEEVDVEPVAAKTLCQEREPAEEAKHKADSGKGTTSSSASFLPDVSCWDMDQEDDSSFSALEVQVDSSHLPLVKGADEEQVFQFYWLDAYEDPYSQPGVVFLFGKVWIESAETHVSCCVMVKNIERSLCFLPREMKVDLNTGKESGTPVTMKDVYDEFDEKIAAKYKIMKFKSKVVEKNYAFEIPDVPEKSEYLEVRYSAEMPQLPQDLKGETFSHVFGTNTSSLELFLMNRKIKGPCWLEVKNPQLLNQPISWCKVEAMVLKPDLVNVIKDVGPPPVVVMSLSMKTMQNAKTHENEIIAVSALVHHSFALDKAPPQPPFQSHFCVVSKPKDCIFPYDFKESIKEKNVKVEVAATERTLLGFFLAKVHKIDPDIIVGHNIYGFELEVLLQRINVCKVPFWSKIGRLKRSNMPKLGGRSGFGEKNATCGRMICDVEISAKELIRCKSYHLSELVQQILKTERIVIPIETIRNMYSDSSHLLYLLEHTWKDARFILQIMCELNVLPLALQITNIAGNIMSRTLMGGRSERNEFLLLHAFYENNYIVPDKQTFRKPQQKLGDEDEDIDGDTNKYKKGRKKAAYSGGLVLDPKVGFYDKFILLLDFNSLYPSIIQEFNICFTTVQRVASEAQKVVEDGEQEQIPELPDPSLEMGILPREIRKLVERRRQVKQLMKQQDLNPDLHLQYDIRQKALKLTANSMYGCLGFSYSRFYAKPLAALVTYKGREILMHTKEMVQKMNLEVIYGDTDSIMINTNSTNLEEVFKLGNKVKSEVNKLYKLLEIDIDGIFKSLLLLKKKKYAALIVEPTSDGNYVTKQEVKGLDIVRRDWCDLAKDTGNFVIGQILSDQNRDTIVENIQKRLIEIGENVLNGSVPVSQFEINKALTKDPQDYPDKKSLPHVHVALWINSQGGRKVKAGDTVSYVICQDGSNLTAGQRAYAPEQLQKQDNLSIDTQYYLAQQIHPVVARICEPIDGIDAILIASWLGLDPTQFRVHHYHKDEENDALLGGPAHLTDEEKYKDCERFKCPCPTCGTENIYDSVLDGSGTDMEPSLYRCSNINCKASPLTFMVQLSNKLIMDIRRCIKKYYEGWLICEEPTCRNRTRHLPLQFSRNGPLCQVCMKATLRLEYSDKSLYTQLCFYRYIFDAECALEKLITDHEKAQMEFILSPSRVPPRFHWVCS
As to the kind of experiment: Calf polymerase alpha inhibition (Replizyme kit). It counts as biochemical. Conditions: at 10 μM, single point screening. As for the experimental part:
Calf polymerase alpha and human polymerase alpha investigations were performed with a kit available from Replizyme Ltd (Heslington, York, UK).
Consider `Cc1ccc(NC(=O)[C@H](CCCCN)NC(=O)Nc2ccc(CCc3ccccc3)cc2)cc1` [Compound 243, (S)-6-AMINO-2-[3-(4-PHENETHYL-PHENYL)-UREIDO]-HEXANOIC ACID P-TOLYLAMIDE], for which the “% Inhibition” value was 0%.
On the same count and under the same terms, next, `Cc1ccc(NC(=O)[C@H](CCCCN)NC(=O)Nc2ccc(Cc3ccccc3)cc2)cc1` [Compound 74, (S)-6-AMINO-2-[3-(4-BENZYL-PHENYL)-UREIDO]-HEXANOIC ACID P-TOLYLAMIDE]: 92%.
On to `NCCCC[C@H](NC(=O)OCC1c2ccccc2-c2ccccc21)C(=O)N(Cc1ccccc1)C1CCCCC1` [Compound 33, (S)-[5-AMINO-1-(BENZYL-CYCLOHEXYL-CARBAMOYL)-PENTYL]-CARBAMIC ACID 9H-FLUOREN-9-YLMETHYL ESTER], for which the inhibition at 10 µM was 95%.
Same read-out and setting: next, `NCCCC[C@H](NC(=O)OCC1c2ccccc2-c2ccccc21)C(=O)NCc1ccccc1` [Compound 21, (S)-(5-AMINO-1-BENZYLCARBAMOYL-PENTYL)-CARBAMIC ACID 9H-FLUOREN-9-YLMETHYL ESTER]: 12%.
On the same count and under the same terms, for `NCCCC[C@@H](NC(=O)Nc1ccc(-c2ccccc2)cc1)C(=O)Nc1ccc(C2CCCCC2)cc1` [Compound 142, (R)-6-AMINO-2-(3-BIPHENYL-4-YL-UREIDO)-HEXANOIC ACID (4-CYCLOHEXYL-PHENYL)-AMIDE] the value was 103%.
`Cc1ccc(NC(=O)[C@H](CCCCN)NC(=O)Nc2ccc(OCc3ccncc3)cc2)cc1` [Compound 279, (S)-6-AMINO-2-{3-[4-(PYRIDIN-4-YLMETHOXY)-PHENYL]-UREIDO}-HEXANOIC ACID P-TOLYLAMIDE]: the “% Inhibition” value was found to be 15%.
The same measure, in the same setting: for `Cc1ccc(NC(=O)[C@H](CCCCN)NC(=O)C2c3ccccc3-c3ccccc32)cc1` [Compound 52, (S)-9H-FLUORENE-9-CARBOXYLIC ACID (5-AMINO-1-P-TOLYLCARBAMOYL-PENTYL)-AMIDE] the value was 13%; for `CNCC(=O)NCCC[C@H](NC(=O)OCC1c2ccccc2-c2ccccc21)C(=O)Nc1ccc(C)cc1` [Compound 223, (S)-[4-(2-METHYLAMINO-ACETYLAMINO)-1-P-TOLYLCARBAMOYL-BUTYL]-CARBAMIC ACID 9H-FLUOREN-9-YLMETHYL ESTER], 22%.
The same measure, in the same setting: for `Cc1ccc(NC(=O)[C@H](CNC(=O)CN)NC(=O)Nc2ccc(OCc3ccccc3)cc2)cc1` [Compound 268, (S)-3-(2-AMINO-ACETYLAMINO)-2-[3-(4-BENZYLOXY-PHENYL)-UREIDO]-N-P-TOLYL-PROPIONAMIDE] the value was 62.7%.
For `Cc1ccc(NC(=O)[C@@H](N)CCCCN)cc1` [Compound 114, (S)-2,6-DIAMINO-HEXANOIC ACID P-TOLYLAMIDE], the “% Inhibition” value came out at 17%.
In the case of `NCCCCC[C@H](NC(=O)Nc1ccc(OCc2ccccc2)cc1)C(=O)Nc1ccc(C2CCCCC2)cc1` [Compound 121, (S)-7-AMINO-2-[3-(4-BENZYLOXY-PHENYL)-UREIDO]-HEPTANOIC ACID (4-CYCLOHEXYL-PHENYL)-AMIDE], the inhibition at 10 µM turned out to be 102%.
Consider `Cc1ccc(NC(=O)[C@H](CCCCN)NC(=O)Nc2cccc(-c3ccccc3)c2)cc1` [Compound 127, (S)-6-AMINO-2-(3-BIPHENYL-3-YL-UREIDO)-HEXANOIC ACID P-TOLYLAMIDE], for which the “% Inhibition” value is recorded as 45%.
On to `Cc1ccc(NC(=O)[C@H](CCCCN)NC(=O)OCC2c3ccccc3-c3ccccc32)cc1` [Compound 20, (S)-(5-AMINO-1-P-TOLYLCARBAMOYL-PENTYL)-CARBAMIC ACID 9H-FLUOREN-9-YLMETHYL ESTER], for which the inhibition at 10 µM came out at 18%.
Regarding `Cc1ccc(NC(=O)[C@H](CCCCN)NC(=O)Nc2ccc(OCc3cccc(F)c3)cc2)cc1` [Compound 249, (S)-6-AMINO-2-{3-[4-(3-FLUORO-BENZYLOXY)-PHENYL]-UREIDO}-HEXANOIC ACID P-TOLYLAMIDE], the “% Inhibition” value came out at 67%.
On to `NCCCCN(CC(=O)Nc1cccc2[nH]ccc12)C(=O)Nc1ccc(OCc2ccccc2)cc1` [Compound 281, 2-[1-(4-AMINO-BUTYL)-3-(4-BENZYLOXY-PHENYL)-UREIDO]-N-(1H-INDOL-4-YL)-ACETAMIDE], for which the inhibition at 10 µM came out at 30.5%.
On to `Cc1ccc(NC(=O)[C@H](CCCCN(C)C)NC(=O)OCC2c3ccccc3-c3ccccc32)cc1` [Compound 124, (S)-(5-DIMETHYLAMINO-1-P-TOLYLCARBAMOYL-PENTYL)-CARBAMIC ACID 9H-FLUOREN-9-YLMETHYL ESTER], for which the “% Inhibition” value stood at 79%.
Still for that read-out and setting: next, `Cc1ccc(N(C)C(=O)[C@H](CCCCN)NC(=O)OCC2c3ccccc3-c3ccccc32)cc1` [Compound 92, (S)-[5-AMINO-1-(METHYL-P-TOLYL-CARBAMOYL)-PENTYL]-CARBAMIC ACID 9H-FLUOREN-9-YLMETHYL ESTER]: 56.5%.
In the case of `NCCCCCCNC(=O)[C@H](Cc1ccccc1)NC(=O)Nc1ccc(OCc2ccccc2)cc1` [Compound 263, (S)—N-(6-AMINO-HEXYL)-2-[3-(4-BENZYLOXY-PHENYL)-UREIDO]-3-PHENYL-PROPIONAMIDE], the inhibition at 10 µM is 31%.
On to `CCNCC(=O)N1CCN(C(=O)OCC2c3ccccc3-c3ccccc32)C(CC(=O)Nc2ccc(C)cc2)C1` (stereo not drawn) [Compound 187, 4-(2-ETHYLAMINO-ACETYL)-2-(P-TOLYLCARBAMOYL-METHYL)-PIPERAZINE-1-CARBOXYLIC ACID 9H-FLUOREN-9-YLMETHYL ESTER], for which the “% Inhibition” value is 33.5%.
Regarding `NCCCCCCNC(=O)[C@@H](NC(=O)OCC1c2ccccc2-c2ccccc21)c1ccccc1` [Compound 313, (S)-[(6-AMINO-HEXYLCARBAMOYL)-PHENYL-METHYL]-CARBAMIC ACID 9H-FLUOREN-9-YLMETHYL ESTER], the inhibition at 10 µM was found to be 43%.
For the compound `Cc1ccc(NC(=O)[C@H](Cc2ccc(CN)cc2)NC(=O)Nc2ccc(-c3ccccc3)cc2)cc1` [Compound 145, (S)-3-(4-AMINOMETHYL-PHENYL)-2-(3-BIPHENYL-4-YL-UREIDO)-N-P-TOLYL-PROPIONAMIDE], the “% Inhibition” value is reported as 102%.
On the same count and under the same terms, for `Cc1ccc(NC(=O)[C@H](CCCC[N+](C)(C)C)NC(=O)OCC2c3ccccc3-c3ccccc32)cc1` [Compound 110] the value was 62.5%.
On the same count and under the same terms, next, `CC(=O)NCCCC[C@H](NC(=O)OCC1c2ccccc2-c2ccccc21)C(=O)Nc1ccc(C)cc1` [Compound 181, (S)-(5-ACETYLAMINO-1-P-TOLYLCARBAMOYL-PENTYL)-CARBAMIC ACID 9H-FLUOREN-9-YLMETHYL ESTER]: 18.5%.
Same read-out and setting: for `Cc1ccc(NC(=O)CN(CCCCN)C(=O)Nc2ccc(OCc3ccccc3)cc2)cc1` [Compound 278, 2-[1-(4-AMINO-BUTYL)-3-(4-BENZYLOXY-PHENYL)-UREIDO]-N-P-TOLYL-ACETAMIDE] the value was 101%.
Consider `Cc1ccc(NC(=O)[C@H](CCCCN)NC(=O)Nc2ccc(OCc3cccnc3)cc2)cc1` [Compound 261, (S)-6-AMINO-2-{3-[4-(PYRIDIN-3-YLMETHOXY)-PHENYL]-UREIDO}-HEXANOIC ACID P-TOLYLAMIDE], for which the “% Inhibition” value stood at 55%.
The same measure, in the same setting: for `Cc1ccc(NC(=O)[C@H](CN)NC(=O)OCC2c3ccccc3-c3ccccc32)cc1` [Compound 103, (S)-(2-AMINO-1-P-TOLYLCARBAMOYL-ETHYL)-CARBAMIC ACID 9H-FLUOREN-9-YLMETHYL ESTER] the value was 72%; for `Cc1ccc(NC(=O)[C@H](CCCCN)NC(=O)Nc2ccc(-c3ccccc3)cc2)cc1` [Compound 40, (S)-6-AMINO-2-(3-BIPHENYL-4-YL-UREIDO)-HEXANOIC ACID P-TOLYLAMIDE], 95%.
The same measure, in the same setting: next, `Cc1ccc(NC(=O)[C@H](CCCCNC(=O)CN)NC(=O)OCC2c3ccccc3-c3ccccc32)cc1` [Compound 176, (S)-[5-(2-AMINO-ACETYLAMINO)-1-P-TOLYLCARBAMOYL-PENTYL]-CARBAMIC ACID 9H-FLUOREN-9-YLMETHYL ESTER]: 68%.
With `Cc1cc2cc(NC(=O)[C@H](CCCCN)NC(=O)Nc3ccc(-c4ccccc4)cc3)ccc2[nH]1` [Compound 94, (S)-6-AMINO-2-(3-BIPHENYL-4-YL-UREIDO)-HEXANOIC ACID (2-METHYL-1H-INDOL-5-YL)-AMIDE], the inhibition at 10 µM was 93%.

Staying with this assay, now noted: dose response.
`NCCCCN(CC(=O)Nc1cccc2[nH]ccc12)C(=O)Nc1ccc(OCc2ccccc2)cc1` [Compound 281, 2-[1-(4-AMINO-BUTYL)-3-(4-BENZYLOXY-PHENYL)-UREIDO]-N-(1H-INDOL-4-YL)-ACETAMIDE] returned an IC50 of 9.2 µM. This lies in the single-digit micromolar range.
